Source: paper PMC11195807, “Development of a multi-targeted chemotherapeutic approach based on G-quadruplex stabilisation and carbonic anhydrase inhibition” (Journal of Enzyme Inhibition and Medicinal Chemistry, 2024)

Tests used:
hCA XII = biological target: T1, hCA XII (Homo sapiens, UniProt O43570); experiment: stopped-flow CO2 hydrase assay, hCA XII; format: biochemical; settings: for Selectivity index (SI) I/XII: hCA XII over hCA I; for Selectivity index (SI) II/XII: hCA XII over hCA II; for Ki: mean ± SEM of three assays
T1 construct: made in house
T1 sequence (O43570 25-354): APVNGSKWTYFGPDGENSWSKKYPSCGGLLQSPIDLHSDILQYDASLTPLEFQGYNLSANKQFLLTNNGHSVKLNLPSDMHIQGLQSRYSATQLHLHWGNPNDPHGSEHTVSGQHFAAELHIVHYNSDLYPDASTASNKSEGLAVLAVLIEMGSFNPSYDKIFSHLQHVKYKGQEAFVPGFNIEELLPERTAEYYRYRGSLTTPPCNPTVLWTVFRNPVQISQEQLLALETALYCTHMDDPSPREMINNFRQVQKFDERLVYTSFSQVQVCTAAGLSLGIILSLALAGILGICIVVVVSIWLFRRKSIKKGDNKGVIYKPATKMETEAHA
From the text: (§1) An Applied Photophysics stopped-flow instrument has been used for assaying the CA-catalysed CO2 hydration activity, as reported earlier. […] All hCA isoforms were recombinant proteins, being obtained in-house as reported earlier.

Hairpin = experiment: CD melting experiments, hairpin DNA duplex; settings: 2 molar equiv compound, T1/2 of DNA alone 66.0 °C
c-Myc = experiment: CD melting experiments, c-Myc GQ; format: binding; settings: for ΔT1/2 c-Myc: 1 molar equiv compound, T1/2 of DNA alone 70.0 °C; for ΔΔT1/2 c-Myc: ΔT1/2 of compound minus ΔT1/2 of berberine, 1 molar equiv
From the text: (§2) The 21 synthesised MTDLs were screened for their ability to bind to and stabilise DNA GQ-forming sequences, compared to berberine, by CD experiments. Indeed, circular dichroism has shown to be outstandingly useful and informative for noncanonical nucleic acid secondary structures. For this purpose, a G-rich 23-nucleotide truncation (23-nt) of the human telomeric sequence (Tel23) and two G-rich motifs from the promoter regions of c-KIT (c-Kit1) and c-MYC (c-Myc) oncogenes were employed. First, the overall topology adopted by each DNA sequence in K^+-containing buffer was verified by CD spectra. […] GQ conformation (Figure S1, Supporting Information). On the other hand, c-Kit1 and c-Myc sequences adopted a parallel GQ conformation, showing a distinctive positive band at around 260 nm and a negative one at ∼240 nm in their CD spectra (Figures S2 and S3, Supporting Information).
(§3) Afterwards, the GQ-stabilising properties of the molecules were assessed by CD melting experiments, measuring the differences in the apparent melting temperatures of the DNA in the presence and absence of compounds (ΔT1/2) (Figures S4–S6 and Table S2, Supporting Information). […] This could be explained by considering the higher accessibility of the external G-tetrads in the case of parallel GQs compared to the hybrid one[52], which would allow the additional CAI moiety of conjugated compounds to be better accommodated in the binding site. […] . […] .

hCA I = biological target: T2, hCA I (Homo sapiens, UniProt P00915); experiment: stopped-flow CO2 hydrase assay, hCA I; format: biochemical
T2 construct: made in house
T2 sequence (P00915 whole entry): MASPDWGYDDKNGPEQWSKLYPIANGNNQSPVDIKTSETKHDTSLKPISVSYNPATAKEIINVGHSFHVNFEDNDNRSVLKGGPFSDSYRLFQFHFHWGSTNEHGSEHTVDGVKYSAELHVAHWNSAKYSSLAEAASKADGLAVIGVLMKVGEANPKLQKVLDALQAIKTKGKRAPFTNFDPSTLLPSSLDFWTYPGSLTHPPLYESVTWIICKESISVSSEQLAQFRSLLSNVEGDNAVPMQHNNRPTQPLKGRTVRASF
Method: (§4) An Applied Photophysics stopped-flow instrument has been used for assaying the CA-catalysed CO2 hydration activity, as reported earlier. The enzyme concentrations were in the range 5–12 nM. All hCA isoforms were recombinant proteins, being obtained in-house as reported earlier.

c-Kit1 = experiment: CD melting experiments, c-Kit1 GQ; format: binding; settings: for ΔT1/2 c-Kit1: 2 molar equiv compound, T1/2 of DNA alone 55.0 °C; for ΔΔT1/2 c-Kit1: ΔT1/2 of compound minus ΔT1/2 of berberine, 2 molar equiv
From the text: as §2, §3

hCA IX = biological target: T3, hCA IX (Homo sapiens, UniProt Q16790); experiment: stopped-flow CO2 hydrase assay, hCA IX; format: biochemical; settings: for Selectivity index (SI) I/IX: hCA IX over hCA I; for Selectivity index (SI) II/IX: hCA IX over hCA II; for Ki: mean ± SEM of three assays
T3 construct: made in house
From the text: as §1

Tel23 = experiment: CD melting experiments, Tel23 GQ; format: binding, human; settings: for ΔT1/2 Tel23: 2 molar equiv compound, T1/2 of DNA alone 53.5 °C; for ΔΔT1/2 Tel23: ΔT1/2 of compound minus ΔT1/2 of berberine, 2 molar equiv
From the text: as §2, §3

hCA II = biological target: T4, hCA II (Homo sapiens, UniProt P00918); experiment: stopped-flow CO2 hydrase assay, hCA II; format: biochemical
T4 construct: made in house
From the text: . The structure-activity relationship is discussed separately for the two compound subsets. Another code pattern is included for the MTDLs in Table 1, which indicates the derivative CAI type (sulphonamide, S or coumarin, C) and the number of atoms in the spacers connecting either berberine and the triazole (carbon atoms) or the triazole and the benzenesulfonamide/coumarin scaffolds (carbon or oxygen atoms).
as §4

[1] = sulphonamides, inhibitor-enzyme incubation 15 min
[2] = sulphonamides, inhibitor-enzyme incubation 15 min, mean ± SEM of three assays
[3] = coumarins, inhibitor-enzyme incubation 6 h

Row | SMILES | Selectivity index (SI) I/XII (hCA XII) | Selectivity index (SI) II/XII (hCA XII) | Ki (hCA XII; [1]) [nM] | ΔT1/2 Hairpin (Hairpin) | ΔT1/2 c-Myc (c-Myc) [°C] | ΔΔT1/2 c-Myc (c-Myc) [°C] | Ki (hCA I; [2]) [nM] | ΔT1/2 c-Kit1 (c-Kit1) [°C] | ΔΔT1/2 c-Kit1 (c-Kit1) [°C] | Selectivity index (SI) I/IX (hCA IX) | Selectivity index (SI) II/IX (hCA IX) | Ki (hCA IX; [1]) [nM] | ΔT1/2 Tel23 (Tel23) [°C] | ΔΔT1/2 Tel23 (Tel23) [°C] | Ki (hCA II; [2]) [nM] | Ki (hCA XII; [3]) [nM] | Ki (hCA I; [3]) [nM] | Ki (hCA IX; [3]) [nM] | Ki (hCA II; [3]) [nM] | ΔΔT1/2 c-Myc (c-Myc; listed as C-1,6) [°C]
1 | COc1ccc2cc3[n+](cc2c1OCCCCn1cc(COc2ccc(S(N)(=O)=O)cc2)nn1)CCc1cc2c(cc1-3)OCO2 [Compound 31, 10-Methoxy-9–(4-(4-((4-sulfamoylphenoxy)methyl)-1H-1,2,3-triazol-1-yl)butoxy)-5,6-dihydro-[1,3]dioxolo[4,5-g]isoquinolino[3,2-a]isoquinolin-7-ium hexafluorophosphate] | 127.2 | 9.9 | 7.2 ± 0.5 | +0.2 °C | 13.0 | 1.0 | 916 ± 57.9 | 15.5 | 2.5 | 1308 | 102.1 | 0.71 ± 0.04 | 8.0 | −1.5 | 71.5 ± 5.3 | – | – | – | – | –
2 | COc1ccc2cc3[n+](cc2c1OCCCCn1cc(CCOc2ccc4ccc(=O)oc4c2)nn1)CCc1cc2c(cc1-3)OCO2 [Compound 38, 10-Methoxy-9–(4-(4–(2-((2-oxo-2H-chromen-7-yl)oxy)ethyl)-1H-1,2,3-triazol-1-yl)butoxy)-5,6-dihydro-[1,3]dioxolo[4,5-g]isoquinolino[3,2-a]isoquinolin-7-ium hexafluorophosphate] | > 598.8 | > 598.8 | – | -2.0 °C | 15.0 | 3.0 | – | 17.5 | 4.5 | > 332.2 | > 332.2 | – | 7.5 | −2.0 | – | 16.7 ± 1.2 | > 100000 | 30.1 ± 1.8 | > 100000 | –
3 | COc1ccc2cc3[n+](cc2c1OCc1cn(-c2ccc(S(N)(=O)=O)cc2)nn1)CCc1cc2c(cc1-3)OCO2 [Compound 41, 10-Methoxy-9-((1–(4-sulfamoylphenyl)-1H-1,2,3-triazol-4-yl)methoxy)-5,6-dihydro-[1,3]dioxolo[4,5-g]isoquinolino[3,2-a]isoquinolin-7-ium hexafluorophosphate] | 135.9 | 3.8 | 6.1 ± 0.3 | +2.5 °C | 14.5 | 2.5 | 829 ± 50.3 | 15.0 | 2.0 | 307.1 | 8.5 | 2.7 ± 0.2 | 5.5 | −4.0 | 22.9 ± 1.4 | – | – | – | – | –
4 | COc1ccc2cc3[n+](cc2c1OCc1cn(CCCOc2ccc4ccc(=O)oc4c2)nn1)CCc1cc2c(cc1-3)OCO2 [Compound 42, 10-Methoxy-9-((1–(3-((2-oxo-2H-chromen-7-yl)oxy)propyl)-1H-1,2,3-triazol-4-yl)methoxy)-5,6-dihydro-[1,3]dioxolo[4,5-g]isoquinolino[3,2-a]isoquinolin-7-ium hexafluorophosphate] | > 980.4 | > 980.4 | – | +0.5 °C | 16.0 | 4.0 | – | 17.0 | 4.0 | > 284.9 | > 284.9 | – | 10.5 | 1.0 | – | 10.2 ± 0.8 | > 100000 | 35.1 ± 2.8 | > 100000 | –
5 | COc1ccc2cc3[n+](cc2c1OCCCCCn1cc(COc2ccc(S(N)(=O)=O)cc2)nn1)CCc1cc2c(cc1-3)OCO2 [Compound 33, 10-Methoxy-9-((5–(4-((4-sulfamoylphenoxy)methyl)-1H-1,2,3-triazol-1-yl)pentyl)oxy)-5,6-dihydro-[1,3]dioxolo[4,5-g]isoquinolino[3,2-a]isoquinolin-7-ium hexafluorophosphate] | 75.7 | 14.2 | 2.9 ± 0.1 | +0.2 °C | 12.5 | 0.5 | 219 ± 16.2 | 18.5 | 5.5 | 406.5 | 76.1 | 0.54 ± 0.03 | 10.5 | 1.0 | 41.1 ± 2.7 | – | – | – | – | –
6 | COc1ccc2cc3[n+](cc2c1OCc1cn(CCCCCOc2ccc4ccc(=O)oc4c2)nn1)CCc1cc2c(cc1-3)OCO2 [Compound 44, 10-Methoxy-9-((1–(5-((2-oxo-2H-chromen-7-yl)oxy)pentyl)-1H-1,2,3-triazol-4-yl)methoxy)-5,6-dihydro-[1,3]dioxolo[4,5-g]isoquinolino[3,2-a]isoquinolin-7-ium hexafluorophosphate] | > 689.7 | > 689.7 | – | +1.0 °C | – | >13.0 | – | 17.5 | 4.5 | > 1041 | > 1041 | – | 7.5 | −2.0 | – | 14.5 ± 0.9 | > 100000 | 9.6 ± 0.5 | > 100000 | > 13.0
7 | COc1ccc2cc3[n+](cc2c1OCCCn1cc(CCOc2ccc4ccc(=O)oc4c2)nn1)CCc1cc2c(cc1-3)OCO2 [Compound 35, 10-Methoxy-9–(3-(4–(2-((2-oxo-2H-chromen-7-yl)oxy)ethyl)-1H-1,2,3-triazol-1-yl)propoxy)-5,6-dihydro-[1,3]dioxolo[4,5-g]isoquinolino[3,2-a]isoquinolin-7-ium hexafluorophosphate] | > 529.1 | > 529.1 | – | +2.0 °C | 18.5 | 6.5 | – | 18.5 | 5.5 | > 289.9 | > 289.9 | – | 8.0 | −1.5 | – | 18.9 ± 0.9 | > 100000 | 34.5 ± 2.4 | > 100000 | –
8 | COc1ccc2cc3[n+](cc2c1OCCCn1cc(CCCOc2ccc4ccc(=O)oc4c2)nn1)CCc1cc2c(cc1-3)OCO2 [Compound 36, 10-Methoxy-9–(3-(4–(3-((2-oxo-2H-chromen-7-yl)oxy)propyl)-1H-1,2,3-triazol-1-yl)propoxy)-5,6-dihydro-[1,3]dioxolo[4,5-g]isoquinolino[3,2-a]isoquinolin-7-ium hexafluorophosphate] | > 352.1 | > 352.1 | – | +0.5 °C | 15.0 | 3.0 | – | 17.0 | 4.0 | > 169.8 | > 169.8 | – | 12.5 | 3.0 | – | 28.4 ± 1.7 | > 100000 | 58.9 ± 3.9 | > 100000 | –
